# Reference: PubChem BioAssay (NCI)
#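 Assay format: 96-well plates, 48-hour exposure. At the TGI there is no net growth.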
# How the values were obtained:
# Assay in all cases: DTP human tumour cell line panel, 48 h
# [1] = test system: 786-0 renal
# [2] = test system: IGROV1 ovarian
# [3] = test system: NCI-H522 lung
# [4] = test system: COLO 205 colon
# [5] = test system: NCI-H226 lung
# [6] = test system: CAKI-1 renal
# [7] = test system: SF-539 CNS
# [8] = test system: HT29 colon
# [9] = test system: LXFL 529 NSCLC
# [10] = test system: M19-MEL melanoma
# [11] = test system: DLD-1 colon
Compound,TGI [1] [µM],TGI [2] [µM],TGI [3] [µM],TGI [4] [µM],TGI [5] [µM],TGI [6] [µM],TGI [7] [µM],TGI [8] [µM],TGI [9] [µM],TGI [10] [µM],TGI [11] [µM]
COC(=O)CCN1CCN(CCO)CC1C (stereo unspecified),> 10,> 10,> 10,> 10,> 10,> 10,> 10,> 10,,,
S=C1NCCN1C(=S)NC1CCCCC1,> 100,> 100,69,59.2,75.2,74.5,70.7,57.2,,,
Nc1cccc(/C=C/CN2CCN(CCOC(c3ccccc3)c3ccccc3)CC2)c1,30.5,30.1,27.7,20.9,40.4,34.1,31.7,13.1,,,
Cc1ccc(N(C)S(=O)(=O)c2ccccc2)cc1,> 100,> 100,> 100,> 100,> 100,> 100,> 100,> 100,,,
C[C@]12CC[C@H]3[C@@H](CC=C4C[C@@H](O)CC[C@@]43C)[C@@H]1C[C@H](N1CCOCC1)[C@@H]2O,> 100,> 100,> 100,> 100,> 100,> 100,> 100,> 100,,,
N#CC12CC=C(c3ccccc3)N=C1NC(c1ccccc1)=CC2 (stereo unspecified),> 100,> 100,> 100,> 100,> 100,,> 100,> 100,,,
O=[N+]([O-])c1ccc(/C=N/n2c(CCc3n[nH]c(=S)n3/N=C/c3ccc([N+](=O)[O-])o3)n[nH]c2=S)o1,31.9,> 100,47.3,,> 100,44.8,> 100,86.4,,,
Cc1ccc(S(=O)(=O)N/N=C2/C3C(CC2(C)C)C2(C)CCCC3(C)C2O)cc1 (stereo unspecified),45.3,69.8,44.5,31.8,35.3,> 100,,39.6,,,
CC(=O)C1=C(C)N(c2ccc(C)cc2)C2(O)C=CC(=O)C3=C(O)c4ccccc4C(=O)C312 (stereo unspecified),> 100,> 100,32.5,> 100,64.4,35.8,97.6,15.7,,,
Cc1ccc(S(=O)(=O)Nn2c(C)cc3ccc(S(=O)(=O)Nc4ccccc4[N+](=O)[O-])cc3c2=O)cc1,> 100,> 100,> 100,44.1,> 100,> 100,> 100,> 100,,,
Cc1ccc(S(=O)(=O)C(C#N)c2nc3ccccc3nc2N2CCOCC2)cc1 (stereo unspecified),> 100,59.1,37.3,> 100,> 100,65,> 100,,> 100,81.6,93.1
Cc1cc(CN(Cc2ccccc2)Cc2nc3ccccc3[nH]2)c(O)c(CN(Cc2nc3ccccc3[nH]2)Cc2nc3ccccc3[nH]2)c1,73.4,> 93.2,> 69.5,> 55.1,> 50.9,> 100,22.4,> 69.6,,,
CC12OC3(C(O)C1O)C(C(=O)O[C@H]3CO[Si](C)(C)C(C)(C)C)C2S(=O)(=O)c1ccccc1 (stereo partly specified),> 100,97.4,47.2,,58.3,,> 100,> 100,,,
Nc1ncnc2c1ccn2CC=C(CO)CO,> 100,> 100,> 100,,> 100,> 100,> 100,> 100,,,
CC(=O)O[C@@H]1[C@@H](C)[C@]2(CC(c3ccoc3)OC2O)C2CCC3O[C@]3(C)[C@]2(C)[C@@H]1OC(C)=O (stereo partly specified),39.9,> 100,69.7,40,87.9,> 100,65.3,> 100,,,
[O-]/N=N\c1on[n+](CCc2ccccc2)c1Cc1c(/N=N/[O-])on[n+]1CCc1ccccc1,47.5,70,43.8,> 100,98.3,> 100,37.1,> 100,,,
CC(C)[Si](Oc1cc2c3c(ccc2c(O)c1[C@@H](C)CO[Si](C)(C)C(C)(C)C)C(C)(C)CCC3)(C(C)C)C(C)C,> 100,> 100,> 100,> 100,> 100,> 100,> 100,> 100,,,
O=C(/C=C/c1cc(F)ccc1F)OCCc1ccccc1,> 100,> 100,> 100,> 100,> 100,> 100,> 100,> 100,,,
COC(=N)c1ncn(Cc2ccccc2)c1N,> 100,> 100,> 100,> 100,> 100,> 100,> 100,> 100,,,
CCOC(=O)c1ncn2c1[nH]c(=O)c1ccccc12,> 100,> 100,> 100,> 100,> 100,,> 100,> 100,> 100,> 100,
COc1ccc(N2C(=O)C(C#N)=C(SC)C(C#N)C2=O)cc1 (stereo unspecified),> 100,> 100,> 100,> 100,> 100,> 100,> 100,> 100,,,
COc1ccc(C(=O)/C=C/c2ccc(OCC#N)cc2)cc1OC,86.7,> 100,32.5,24.2,37.9,37.5,36.9,74.7,,,
O=CNNC(=O)CSc1nc2ccc(I)cc2c(=O)n1Cc1ccccc1,> 100,> 100,57.4,36.4,> 100,57.5,> 100,> 100,,,
c1ccc2c(c1)ncn2CCn1ccnc1,> 100,> 100,> 100,> 100,> 100,,> 100,> 100,,,
CC(=O)N1N=C(c2ccc3ccccc3c2O)CC1c1ccc(Cl)cc1Cl (stereo unspecified),> 100,> 100,> 100,> 100,> 100,> 100,50.6,> 100,,,
